Assay [1] deals with spontaneously hypertensive rats (SHRs). Description: 2-week evaluation of blood pressure lowering effect (non-invasive tail blood pressure, CODA-6). The format is in vivo, rat. The settings on record: olmesartan medoxomil 1, valsartan 4, telmisartan 4, dapagliflozin (as propylene glycol hydrate) 1 mg/kg/day; for Systolic blood pressure immediately before administration: 10-week-old SHR, baseline, mean of 5 rats; for Size of blood pressure reduction / Systolic blood pressure at 14th day after administration: SHR; for Size of blood pressure reduction: 14th day versus before administration; for Systolic blood pressure at 14th day after administration: once daily for 14 days, measured 2 hours after dosing. How it is done: The SHR rats are rats derived from Wistar Kyoto WKY) rats with normal blood pressure, and are rats that spontaneously develop hypertension with aging without any artificial treatment. […] The blood pressure in the experimental animals was measured using a CODA-6 system (Kent Scientific Corp.) which is a non-invasive blood pressure (NIBP) measurement system. […] The rats were divided into total 7 groups according to the kind of drug to be administered, and five rats were randomly assigned to each group. The groups administered with each drug are as follows: (2) a group administered with 1 mg/kg/day of olmesartan medoxomil alone; (3) a group administered with 4 mg/kg/day of valsartan alone; (4) a group administered with 4 mg/kg/day of telmisartan alone; (5) a group administered with a combination of 1 mg/kg/day of olmesartan medoxomil+1 mg/kg/day of dapagliflozin; (6) a group administered with a combination of 4 mg/kg/day of valsartan+1 mg/kg/day of dapagliflozin; (7) a group administered with a combination of 4 mg/kg/day of telmisartan+1 mg/kg/day of dapagliflozin. (*In this Example, a dapagliflozin propylene glycol hydrate corresponding to 1 mg of dapagliflozin was administered actually). For drug administration, each drug was administered to each rat once a day at a predetermined dose at the same time every morning. Considering that the amounts of antihypertensive drugs used in humans are different, the antihypertensive drugs were administered at different doses.

Assay [2] has as its system SHR rats. Description: 4-week evaluation of blood pressure lowering effect (non-invasive tail systolic and diastolic blood pressure). The assay is classed as in vivo, rat. The following applies: for Diastolic blood pressure at 1st week after administration / Diastolic blood pressure at 2nd week after administration / Diastolic blood pressure at 3rd week after administration / Diastolic blood pressure at 4th week after administration / Systolic blood pressure at 1st week after administration / Systolic blood pressure at 2nd week after administration / Systolic blood pressure at 3rd week after administration / Systolic blood pressure at 4th week after administration: oral once daily; for Diastolic blood pressure immediately after administration / Systolic blood pressure immediately after administration: oral, mean of 8 rats. The protocol: As experimental animals, 6-week-old male SHR rats were used (however, WKY rats were used as a normal control). A method for measurement of blood pressure is as follows: […] The rats were divided into total 7 groups according to the kind of drug to be administered, and eight rats were randomly assigned to each group. The groups administered with each drug are as follows: (3) a group administered with test substance 1 (G3): a group administered with a combination of 2 mg/kg/day of olmesartan medoxomil+1 mg/kg/day of dapagliflozin; (4) a group administered with test substance 2 (G4): a group administered with a combination of 2 mg/kg/day of olmesartan medoxomil+3 mg/kg/day of dapagliflozin; (5) a group administered with comparative substance 1 (G5): a group administered with 2 mg/kg/day of olmesartan medoxomil alone; (6) a group administered with comparative substance 2 (G6): a group administered with 1 mg/kg/day of dapagliflozin alone; (7) a group administered with […]: a group administered with 3 mg/kg/day of dapagliflozin alone. (* In this Experimental Example, dapagliflozin was administered in an anhydride form, not a solvate form). For drug administration, each drug was forcibly administered into the rat's stomach through a disposable syringe with an oral zonde at a predetermined dose at the same time every day. As test substances, olmesartan medoxomil was administered, and then immediately dapagliflozin was administered. The doses of the antihypertensive drug and the antidiabetic drug were determined considering the doses to be applied in clinical practice.

Setting [3] is: SHR, 1st to 4th week, olmesartan medoxomil 2 mg/kg/day with (G3) or without (G5) dapagliflozin 1 mg/kg/day.
[4] abbreviates: SHR, olmesartan medoxomil 2 mg/kg/day and/or dapagliflozin 1 mg/kg/day (G3, G5, G6).
Setting [5] is: p<0.01 at 1st, 2nd, 3rd and 4th week, olmesartan medoxomil 2 mg/kg/day with (G3) or without (G5) dapagliflozin 1 mg/kg/day.
[6] abbreviates: SHR, dapagliflozin 3 mg/kg/day with (G4) or without (G7) olmesartan medoxomil 2 mg/kg/day.

Structures are written as SMILES.

Turning to `CCCc1nc(C(C)(C)O)c(C(=O)OCc2oc(=O)oc2C)n1Cc1ccc(-c2ccccc2-c2nnn[nH]2)cc1` [Olmesartan medoxomil, olmesartan medoxomil], in assay [1], the “Systolic blood pressure immediately before administration” value was found to be 202 mmHg, the “Size of blood pressure reduction” value was 39 mmHg and the “Systolic blood pressure at 14th day after administration” value worked out at 163 mmHg. Moreover, in assay [2] (setting [3]), the “Range of mean diastolic blood pressure” value lay within 127 to 172 mmHg and the “Range of mean systolic blood pressure” value lay in the range of 159 to 190 mmHg. In addition, in assay [2] (setting [4]), the “Diastolic blood pressure at 1st week after administration” value (from here on “Diastolic blood pressure at 1st week”) stood at 127 mmHg, the “Diastolic blood pressure at 2nd week after administration” value (shortened to “Diastolic blood pressure at 2nd week”) turned out to be 153 mmHg, the “Diastolic blood pressure at 3rd week after administration” value (“Diastolic blood pressure at 3rd week” below) is on record as 153 mmHg and the “Diastolic blood pressure at 4th week after administration” value (from here on “Diastolic blood pressure at 4th week”) was 172 mmHg. Further, in assay [2] (setting [4]), the “Systolic blood pressure at 1st week after administration” value (shortened to “Systolic blood pressure at 1st week”) is listed as 159 mmHg, the “Systolic blood pressure at 2nd week after administration” value (shortened to “Systolic blood pressure at 2nd week”) came to 181 mmHg, the “Systolic blood pressure at 3rd week after administration” value (shortened to “Systolic blood pressure at 3rd week”) came out at 178 mmHg and the “Systolic blood pressure at 4th week after administration” value (shortened to “Systolic blood pressure at 4th week”) is 190 mmHg. In assay [2] (setting [4]), the “Diastolic blood pressure immediately after administration” value (shortened to “Diastolic blood pressure immediately”) was 140 mmHg and the “Systolic blood pressure immediately after administration” value was found to be 171 mmHg. Moreover, in assay [2] (setting [5]), the “Mean diastolic blood pressure compared with negative control group (G2)” value is on record as “statistically significantly lower” and the “Mean systolic blood pressure compared with negative control group (G2)” value is recorded as “statistically significantly lower”.
Consider `CCCc1nc2c(C)cc(-c3nc4ccccc4n3C)cc2n1Cc1ccc(-c2ccccc2C(=O)O)cc1` [Telmisartan, telmisartan], for which, in assay [1], the “Systolic blood pressure immediately before administration” value is reported as 203 mmHg, the “Size of blood pressure reduction” value was 35 mmHg and the “Systolic blood pressure at 14th day after administration” value was 168 mmHg.
For `CCCCC(=O)N(Cc1ccc(-c2ccccc2-c2nnn[nH]2)cc1)[C@H](C(=O)O)C(C)C` [Valsartan, valsartan], in that order: 200 mmHg, 30 mmHg and 170 mmHg.
Turning to `CCOc1ccc(Cc2cc([C@@H]3O[C@H](CO)[C@@H](O)[C@H](O)[C@H]3O)ccc2Cl)cc1` [dapagliflozin], in assay [2] (setting [6]), the “Diastolic blood pressure at 1st week” value was 149 mmHg, the “Diastolic blood pressure at 2nd week” value is reported as 188 mmHg, the “Diastolic blood pressure at 3rd week” value worked out at 204 mmHg and the “Diastolic blood pressure at 4th week” value is reported as 186 mmHg. Moreover, in assay [2] (setting [6]), the “Systolic blood pressure at 1st week” value is listed as 189 mmHg, the “Systolic blood pressure at 2nd week” value is on record as 219 mmHg, the “Systolic blood pressure at 3rd week” value was determined as 228 mmHg and the “Systolic blood pressure at 4th week” value is given as 212 mmHg. In assay [2] (setting [6]), the “Diastolic blood pressure immediately” value was 139 mmHg and the “Systolic blood pressure immediately after administration” value turned out to be 172 mmHg. Also, in assay [2] (setting [4]), the “Diastolic blood pressure at 1st week” value stood at 154 mmHg, the “Diastolic blood pressure at 2nd week” value is on record as 179 mmHg, the “Diastolic blood pressure at 3rd week” value is 175 mmHg and the “Diastolic blood pressure at 4th week” value stood at 187 mmHg. Besides, in assay [2] (setting [4]), the “Systolic blood pressure at 1st week” value came to 185 mmHg, the “Systolic blood pressure at 2nd week” value came out at 213 mmHg, the “Systolic blood pressure at 3rd week” value is 204 mmHg and the “Systolic blood pressure at 4th week” value was 211 mmHg. In assay [2] (setting [4]), the “Diastolic blood pressure immediately” value amounted to 142 mmHg and the “Systolic blood pressure immediately after administration” value is 172 mmHg.
